Laboratory results from PubChem BioAssay AID1259411 (Chemical Carcinogenesis Research Information System (CCRIS), 2018).
The source made the active and inactive calls. No rule for the calls is given here.

Tested on: rodent carcinogenicity bioassays, tumor incidence
Assay: CCRIS carcinogenicity studies
Outline: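 NCI-built, expert-reviewed records of carcinogenicity and related test outcomes (mutagenicity, tumor promotion/inhibition) compiled from published and report sources, historical span 1985-2011, not updated.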

Cn1c(N)nc2ncc(-c3ccccc3)cc21
carcinogen call (Species: HAMSTER, Strain/Sex: RAPID ACETYLATOR CONGENIC/MALE, Route: ORAL, Dose: 75 MG/KG BW/DOSE BY GAVAGE, 2 DOSES/WK FOR 4 WK FOLLOWED BY 1 DOSE/WK FOR 1 WK AND 1 DOSE/2 WK FOR 4 WK, FOLLOWED BY A H): inactive; negative | carcinogen call (Species: HAMSTER, Strain/Sex: SLOW ACETYLATOR CONGENIC/MALE, Route: ORAL, Dose: 75 MG/KG BW/DOSE BY GAVAGE, 2 DOSES/WK FOR 4 WK FOLLOWED BY 1 DOSE/WK FOR 1 WK AND 1 DOSE/2 WK FOR 4 WK, FOLLOWED BY A H): inactive; negative | carcinogen call (Species: MOUSE, Strain/Sex: B6C3F1/MALE, Route: INTRAPERITONEAL, Dose: 0, 0.625 UMOL IN 35 µL DMSO ON D 1, 8, AND 15 AFTER BIRTH (STUDY DURATION: 8 MO)): inactive; negative | carcinogen call (Species: MOUSE, Strain/Sex: B6C3F1/MALE, Route: INTRAPERITONEAL, Dose: 0, 0.625 UMOL IN 35 µL DMSO ON D 1, 8, AND 15 AFTER BIRTH (STUDY DURATION: 12 MO), Tumor Site: Type of Lesion: LIVER: HEPATOCELLULAR ADENOMA): active; positive | carcinogen call (Species: MOUSE, Strain/Sex: B6C3F1/MALE, Route: INTRAPERITONEAL, Dose: 0, 1.25 UMOL IN 35 µL DMSO ON D 1, 8, AND 15 AFTER BIRTH (STUDY DURATION: 8 MO), Tumor Site: Type of Lesion: LIVER: HEPATOCELLULAR ADENOMA): active; positive | carcinogen call (Species: MOUSE, Strain/Sex: B6C3F1/MALE, Route: INTRAPERITONEAL, Dose: 0, 1.25 UMOL IN 35 µL DMSO ON D 1, 8, AND 15 AFTER BIRTH (STUDY DURATION: 12 MO), Tumor Site: Type of Lesion: LIVER: HEPATOCELLULAR ADENOMA, HEPATOCELLULAR CARCINOMA): active; positive | carcinogen call (Species: MOUSE, Strain/Sex: C57/FEMALE, Route: ORAL, Dose: 0, 300 PPM IN HIGH FAT DIET FOR 40 WK, FOLLOWED BY CONTINUOUS FEEDING OF HIGH FAT DIET UNTIL STUDY TERMINATION (STUDY DU, Tumor Site: Type of Lesion: SMALL INTESTINE: ADENOCARCINOMAS OR ADENOMAS): active; positive | carcinogen call (Species: MOUSE, Strain/Sex: C57/MALE, Route: ORAL, Dose: 0, 300 PPM IN HIGH FAT DIET FOR 40 WK, FOLLOWED BY CONTINUOUS FEEDING OF HIGH FAT DIET UNTIL STUDY TERMINATION (STUDY DU, Tumor Site: Type of Lesion: SMALL INTESTINE: ADENOCARCINOMAS OR ADENOMAS, LYMPHATIC SYSTEM: LYMPHOMA): active; positive | carcinogen call (Species: MOUSE, Strain/Sex: CDF1/FEMALE, Route: ORAL, Dose: 0, 0.04% IN THE DIET FOR DURATION OF STUDY (STUDY DURATION: 579 D), Tumor Site: Type of Lesion: HEMATOPOIETIC SYSTEM: LYMPHOMA): active; positive | carcinogen call (Species: MOUSE, Strain/Sex: CDF1/MALE, Route: ORAL, Dose: 0, 0.04% IN THE DIET FOR DURATION OF STUDY (STUDY DURATION: 579 D), Tumor Site: Type of Lesion: HEMATOPOIETIC SYSTEM: LYMPHOMA): active; positive | carcinogen call (Species: MOUSE, Strain/Sex: EU-PIM-1/FEMALE, Route: ORAL, Dose: 0, 0.03% IN DIET FOR 31 WK (STUDY DURATION: 31 WK)): inactive; negative | carcinogen call (Species: MOUSE, Strain/Sex: EU-PIM-1/MALE, Route: ORAL, Dose: 0, 0.03% IN DIET FOR 31 WK (STUDY DURATION: 31 WK)): inactive; negative | carcinogen call (Species: MOUSE, Strain/Sex: NON-TRANSGENIC WILD-TYPE/FEMALE, Route: ORAL, Dose: 0, 0.03% IN DIET FOR 31 WK (STUDY DURATION: 31 WK)): inactive; negative | carcinogen call (Species: MOUSE, Strain/Sex: NON-TRANSGENIC WILD-TYPE/MALE, Route: ORAL, Dose: 0, 0.03% IN DIET FOR 31 WK (STUDY DURATION: 31 WK)): inactive; negative | carcinogen call (Species: MOUSE, Strain/Sex: TRANSGENIC EU-PIM-1/FEMALE, Route: ORAL, Dose: 0, 0.03% IN DIET FOR 31 WK (STUDY DURATION: 31 WK), Tumor Site: Type of Lesion: LYMPHATIC SYSTEM: LYMPHOMA): active; positive | carcinogen call (Species: MOUSE, Strain/Sex: TRANSGENIC EU-PIM-1/MALE, Route: ORAL, Dose: 0, 0.03% IN DIET FOR 31 WK (STUDY DURATION: 31 WK)): inactive; negative | carcinogen call (Species: MOUSE, Strain/Sex: WILD-TYPE/FEMALE, Route: ORAL, Dose: 0, 0.03% IN DIET FOR 31 WK (STUDY DURATION: 31 WK)): inactive; negative | carcinogen call (Species: MOUSE, Strain/Sex: WILD-TYPE/MALE, Route: ORAL, Dose: 0, 0.03% IN DIET FOR 31 WK (STUDY DURATION: 31 WK)): inactive; negative | carcinogen call (Species: RAT, Strain/Sex: F344/FEMALE, Route: ORAL, Dose: 0, 25, 100 PPM IN DIET FOR 104 WK (STUDY DURATION: 104 WK), Dose: 0, 25, 100 PPM IN DIET FOR 104 WK (STUDY DURATION: 104 WK), Tumor Site: Type of Lesion: MAMMARY GLAND: ADENOCARCINOMA): active; positive | carcinogen call (Species: RAT, Strain/Sex: F344/FEMALE, Route: ORAL, Dose: 0, 400 PPM IN DIET FOR 52 WK (STUDY DURATION: 52 WK), Tumor Site: Type of Lesion: MAMMARY GLAND: ADENOCARCINOMA): active; positive | carcinogen call (Species: RAT, Strain/Sex: F344/MALE, FEMALE, Route: MATERNAL MILK, Dose: 200 PPM IN DIET TO MOTHERS FROM D OF MATING TO WEANING, THEN OFFSPRING ON CONTROL DIET FOR 60 WKS (STUDY DURATION: 63 WK): inactive; negative; prostate and colon tumors not enhanced; multiplicity of aberrant crypt | carcinogen call (Species: RAT, Strain/Sex: F344/MALE, Route: ORAL, Dose: 0, 25, 100 PPM IN DIET FOR 104 WK (STUDY DURATION: 104 WK), Dose: 0, 25, 100 PPM IN DIET FOR 104 WK (STUDY DURATION: 104 WK), Tumor Site: Type of Lesion: COLON: CARCINOMA): active; positive | carcinogen call (Species: RAT, Strain/Sex: F344/MALE, Route: ORAL, Dose: 0, 100, 300 PPM IN DIET FOR 40 WK (STUDY DURATION: 40 WK), Dose: 0, 100, 300 PPM IN DIET FOR 40 WK (STUDY DURATION: 40 WK), Tumor Site: Type of Lesion: PROSTATE (VENTRAL): PROSTATIC INTRAEPITHELIAL NEOPLASIA): active; positive | carcinogen call (Species: RAT, Strain/Sex: F344/MALE, Route: ORAL, Dose: 0, 400 PPM IN DIET FOR 52 WK (STUDY DURATION: 52 WK), Tumor Site: Type of Lesion: COLON: ADENOCARCINOMA): active; positive | carcinogen call (Species: RAT, Strain/Sex: F344/MALE, Route: ORAL, Dose: 0, 400 PPM IN DIET FOR 52 WK (STUDY DURATION: 52 WK), Tumor Site: Type of Lesion: PROSTATE (VENTRAL): CARCINOMA): active; positive | carcinogen call (Species: RAT, Strain/Sex: SPRAGUE DAWLEY/FEMALE, 43 D OLD, Route: ORAL, Dose: 75 MG/DOSE, 10 DOSES GIVEN ONCE/D OVER 12 D (STUDY DURATION: 6 MO), Tumor Site: Type of Lesion: MAMMARY GLAND): active; positive (5% incidence) | carcinogen call (Species: RAT, Strain/Sex: SPRAGUE DAWLEY/FEMALE, 150 D OLD, Route: ORAL, Dose: 75 MG/DOSE, 10 DOSES GIVEN ONCE/D OVER 12 D (STUDY DURATION: 6 MO), Tumor Site: Type of Lesion: MAMMARY GLAND): inactive; negative (0% incidence) | carcinogen call (Species: RAT, Strain/Sex: SPRAGUE-DAWLEY/FEMALE, Route: ORAL, Dose: 0, 12.5, 50 PPM IN DIET FOR DURATION OF STUDY (STUDY DURATION: 48 WK), Dose: 0, 12.5, 50 PPM IN DIET FOR DURATION OF STUDY (STUDY DURATION: 48 WK), Tumor Site: Type of Lesion: MAMMARY GLAND: TUMOR): active; positive | carcinogen call (Species: RAT, Strain/Sex: SPRAGUE-DAWLEY/FEMALE, Route: ORAL, Dose: 0, 25, 100, 200 PPM IN DIET FOR 48 WK (STUDY DURATION: 48 WK), Dose: 0, 25, 100, 200 PPM IN DIET FOR 48 WK (STUDY DURATION: 48 WK), Tumor Site: Type of Lesion: MAMMARY GLAND: TUMOR): active; positive | carcinogen call (Species: RAT, Strain/Sex: SPRAGUE-DAWLEY/FEMALE, Route: ORAL, Dose: 0, 25, 100, 200 PPM IN DIET FOR DURATION OF STUDY (STUDY DURATION: 48 WK), Dose: 0, 25, 100, 200 PPM IN DIET FOR DURATION OF STUDY (STUDY DURATION: 48 WK), Tumor Site: Type of Lesion: MAMMARY GLAND: TUMOR): active; positive | carcinogen call (Species: RAT, Strain/Sex: SPRAGUE-DAWLEY/FEMALE, Route: ORAL, Dose: 0, 25, 100 PPM IN DIET FROM WEANING TO 47 WK OF AGE (STUDY DURATION: 47 WK), Dose: 0, 25, 100 PPM IN DIET FROM WEANING TO 47 WK OF AGE (STUDY DURATION: 47 WK), Tumor Site: Type of Lesion: MAMMARY GLAND: TUMOR): active; positive | carcinogen call (Species: RAT, Strain/Sex: SPRAGUE-DAWLEY/FEMALE, Route: ORAL, Dose: 0, 75 MG/KG IN 5 ML CORN OIL 1/D ON DAYS 1-5 AND 8-12 OF STUDY FOLLOWED 2 DAYS LATER BY A HIGH-FAT DIET FOR DURATION OF, Tumor Site: Type of Lesion: MAMMARY GLAND: TUMOR): active; positive | carcinogen call (Species: RAT, Strain/Sex: SPRAGUE-DAWLEY/FEMALE, Route: TRANSPLACENTAL, ORAL, Dose: 0, 100 PPM IN DIET OF MOTHERS BEGINNING 4 WK BEFORE MATING AND CONTINUING THROUGH LACTATION THEN OFFSPRING ADMINISTERED, Tumor Site: Type of Lesion: MAMMARY GLAND: TUMOR): active; positive | carcinogen call (Species: RAT, Strain/Sex: SPRAGUE-DAWLEY/MALE, Route: ORAL, Dose: 0, 25, 100 PPM IN DIET FROM WEANING TO 47 WK OF AGE (STUDY DURATION: 47 WK), Dose: 0, 25, 100 PPM IN DIET FROM WEANING TO 47 WK OF AGE (STUDY DURATION: 47 WK)): inactive; negative | carcinogen call (Species: RAT, Strain/Sex: SPRAGUE-DAWLEY/MALE, Route: TRANSPLACENTAL, ORAL, Dose: 0, 100 PPM IN DIET OF MOTHERS BEGINNING 4 WK BEFORE MATING AND CONTINUING THROUGH LACTATION THEN OFFSPRING ADMINISTERED): inactive; negative | carcinogen call (Species: RAT, Strain/Sex: STRAIN-CD/FEMALE, Route: GAVAGE, Dose: 0, 50 UMOL IN 0.5 ML TRIOCTANOIN 1/WK FOR 8 WK (STUDY DURATION: 49 WK), Tumor Site: Type of Lesion: MAMMARY GLAND: FIBROADENOMA, ADENOCARCINOMA): active; positive
